These results are taken from US8088819B2, “Derivatives of substituted 3-phenyl-1-(phenylthienyl)propan-1-ones and of 3-phenyl-1-(phenylfuranyl) propan-1-ones, preparation and use” (priority 2006, dated 2012).

Data set [1] has as its system MCP1 and MMP9 genes in human monocytes (THP1). As to the kind of experiment: Expression of MCP1 and MMP9 in human monocytes stimulated with PMA, quantitative RT-PCR. It counts as cell-based. To be noted: 24 h. The procedure: The antiinflammatory effects of the compounds according to the invention were evaluated by measuring the secretion and expression of macrophages chemoattractant protein (MCP1) and of matrix metalloproteinase 9 (MMP9) by monocytes treated with the compounds according to the invention for 24 hours and stimulated with PMA (phorbol 12-myristate 13-acetate, which causes an inflammatory response of the cells). The more the amount of MCP1 secreted is reduced, the greater the inhibitory action of the compounds according to the invention on the inflammatory reaction. Similarly, the more the expression of the genes coding for MCP1 and MMP9 is inhibited, the greater the antiinflammatory effect of the compounds according to the invention.
The THP1 human monocyte line (obtained from ATCC) is cultivated in RPMI1640 medium with addition of 25 mM Hepes (Gibco; 42401-018), 1% glutamine (Gibco; 25030-24) 1% penicillin/streptomycin (Biochrom AG; A 2213) and 10% decomplemented fetal calf serum (FCS. Gibco; 10270-106).
The cells are seeded on 24-well plates (Primaria BD Falcon) at a density of 8.70·10^5 cells/well in the treatment medium (same composition as the culture medium but with 0.2% of decomplemented fetal calf serum) and in the presence of 5 ng/mL of phorbol 12-myristate 13-acetate (PMA) for inducing the inflammatory response.
The compounds according to the invention were tested at 0.1, 0.3 and/or at 1 μm, and dissolved in dimethylsulfoxide (DMSO, Fluka; 41640). The cells are treated for 24 h at 37° C., 5% CO2. The effect of the compound according to the invention is compared with the effect of DMSO alone.
After treatment, the total RNA is extracted from the cells using the NucleoSpin® 96 RNA kit (Macherey Nagel, Hoerdt, France) following the manufacturer's instructions.
1 μg of total RNA (quantified based on the reading of the UV spectrophotometer) was then reverse-transcribed to complementary DNA by reaction for 1 hour at 37° C. in a total volume of 30 μl containing buffer 1× (Invitrogen), 1.5 mM of DTT, 0.18 mM of dNTPs (Promega), 200 ng of pdN6 (Amersham), 30 U of RNase inhibitor (Promega) and 1 μl of MMLV-RT (Invitrogen).
The quantitative PCR experiments were carried out using the MyiQ Single-Color Real-Time PCR Detection System (Biorad, Marnes-la-Coquette, France) and were performed using the iQ SYBR Green Supermix kit following the supplier's recommendations, in 96-well plates, on 5 μl of diluted reverse-transcription reaction mixture with a hybridization temperature of 60° C. Primer pairs specific to the MCP1 and MMP9 genes under investigation were used:
The amount of fluorescence emitted is directly proportional to the amount of complementary DNA present at the start of the reaction and amplified during PCR. […] The relative expression levels of each target are thus determined using the efficacy curves obtained with the points in the range.
The levels of expression of the genes of interest were then normalized, […] relative to the level of expression of the reference gene 36B4 (whose specific primers are: sense primer: 5′-[…]-3′ (SEQ ID No. 19) and antisense primer: 5′-[…]-3′ (SEQ ID No. 20)). The induction factor, i.e. the ratio of the relative signal (induced by the compound according to the invention) to the mean of the relative values of the control group, was then calculated. […]

Data set [2] deals with T1, hPPARdelta (Homo sapiens, UniProt Q03181).
T1 construct: expressed in transfected cells; host or cells: COS-7 (monkey kidney fibroblasts)
T1 sequence (Q03181 211-439 limits assumed): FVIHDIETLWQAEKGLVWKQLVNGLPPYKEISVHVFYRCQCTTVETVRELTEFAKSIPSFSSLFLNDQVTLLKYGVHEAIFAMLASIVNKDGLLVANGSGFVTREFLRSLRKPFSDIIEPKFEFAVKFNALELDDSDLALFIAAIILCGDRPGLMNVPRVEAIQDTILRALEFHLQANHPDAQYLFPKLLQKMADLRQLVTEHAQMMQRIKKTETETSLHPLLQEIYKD
As to the kind of experiment: PPAR activation: Gal4-hPPARδ chimera luciferase transactivation in COS-7 cells, Method 1. Type of data set: cell-based. Particulars: COS-7, 24 h; for Emax: maximum percentage response relative to the reference GW501516, read-out: hPPARdelta % max. The method, boiled down:
(§1)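 COS-7 cells transiently transfected with Gal4 DBD–human PPAR LBD (DEF domain) chimeras plus Gal4(RE)_TkpGL3 luciferase reporter (1/10 ratio). Compounds applied 24 h at 37 °C in serum-free medium at doses between 10^−5 and […]; luciferase read after lysis, EC50 derived.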

Data set [3] addresses T2, hPPARgamma (Homo sapiens, UniProt P37231).
T2 construct: expressed in transfected cells; host or cells: COS-7 (monkey kidney fibroblasts)
T2 sequence (P37231 238-503 limits assumed): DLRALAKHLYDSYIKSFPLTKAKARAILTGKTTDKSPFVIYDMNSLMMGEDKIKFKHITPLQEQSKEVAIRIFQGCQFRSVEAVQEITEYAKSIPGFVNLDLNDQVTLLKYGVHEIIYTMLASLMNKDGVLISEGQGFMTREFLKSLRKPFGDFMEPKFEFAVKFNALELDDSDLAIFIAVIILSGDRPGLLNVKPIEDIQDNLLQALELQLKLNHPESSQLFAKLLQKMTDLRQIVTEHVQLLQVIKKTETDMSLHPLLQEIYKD
Briefly: PPAR activation: Gal4-hPPARγ chimera luciferase transactivation in COS-7 cells, Method 1. Particulars: COS-7, 24 h; for Emax: maximum percentage response relative to the reference rosiglitazone, read-out: hPPARgamma % max. It counts as cell-based. The method, boiled down:
as §1

`CC(C)(Oc1ccc(CCC(=O)c2ccc(-c3ccc(C(F)(F)F)cc3)s2)c(Cl)c1Cl)C(=O)O` [Compound 2, 2-(2,3-dichloro-4-(3-oxo-3-(5-(4-(trifluoromethyl)phenyl)thien-2-yl)propyl)phenoxy)-2-methylpropanoic acid]: the melting point (as a rule, the temperature of the solid-liquid transition) lay in the range of 153 to 154 °C. In addition, in data set [1] (at 0.1 and 0.3 μm), the “expression of MCP1 in human monocytes” value is “significant decrease”. In addition, in data set [2], the EC50 (as a rule, the concentration needed to bring the measured effect to its halfway point) was found to be 0.007 µM and the Emax was determined as 91%. Moreover, in data set [3], the EC50 came to 0.06 µM and the Emax is 11%.

On to `CC(C)(Oc1ccc(CCC(O)c2ccc(-c3ccc(C(F)(F)F)cc3)s2)c(Cl)c1Cl)C(=O)O` (centres unmarked) [Compound 4, 2-(2,3-dichloro-4-(3-hydroxy-3-(5-(4-(trifluoromethyl)phenyl)thien-2-yl)propyl)phenoxy)-2-methylpropanoic acid], for which the melting point lay in the range of 54 to 56 °C. Besides, in data set [2], the 50% effective concentration (EC50) stood at 0.034 µM and the Emax stood at 107%. Besides, the Emax in data set [3] was determined as 38%.

Take `CC(C)(Oc1ccc(CCC(OCc2ccccc2)c2ccc(-c3ccc(C(F)(F)F)cc3)s2)c(Cl)c1Cl)C(=O)O` (centres unmarked) [Compound 7, 2-(4-(3-(benzyloxy)-3-(5-(4-(trifluoromethyl)phenyl)thien-2-yl)propyl)-2,3-dichlorophenoxy)-2-methylpropanoic acid]: the melting point lay in the range of 46 to 48 °C. Also, in data set [1] (at 1 μm), the “expression of MCP1 in human monocytes” value was “significant decrease” and the “expression of MMP9 in human monocytes” value is recorded as “significant decrease”.

Regarding `CC(C)(Oc1ccc(CCC(=O)c2cc(-c3ccc(C(F)(F)F)cc3)cs2)c(Cl)c1Cl)C(=O)O` [Compound 11, 2-(2,3-dichloro-4-(3-oxo-3-(4-(4-(trifluoromethyl)phenyl)thien-2-yl)propyl)phenoxy)-2-methylpropanoic acid], the melting point lay in the range of 99 to 101 °C. Besides, in data set [1] (at 1 μm), the “expression of MCP1 in human monocytes” value is listed as “significant decrease” and the “expression of MMP9 in human monocytes” value is recorded as “significant decrease”. In addition, in data set [2], the EC50 is 0.003 µM and the Emax was 105%. In addition, in data set [3], the EC50 came out at 1.17 µM and the Emax turned out to be 55%.
